Measured values reported in the supplement of paper PMC5908809.

Key:
[1] = system: DERL-7 (IL-2 2.5 ng/mL); assay: percent inhibition of viability; higher = more inhibition; conditions: 72 h
[2] = system: KAI3 (IL-2 2.5 ng/mL); assay: as above; conditions: 72 h
[3] = system: KHYG-1 (IL-2 2.5 ng/mL); assay: as above; conditions: 72 h
[4] = system: NK-92 (IL-2 2.5 ng/mL); assay: as above; conditions: 72 h
[5] = system: NK-YS (IL-2 2.5 ng/mL); assay: as above; conditions: 72 h
[6] = system: NKL (IL-2 2.5 ng/mL); assay: as above; conditions: 72 h
[7] = system: SNK-6 (IL-2 2.5 ng/mL); assay: as above; conditions: 72 h
[8] = system: YT (IL-2 2.5 ng/mL); assay: as above; conditions: 72 h
[9] = system: normal primary NK cells, pool 1 (3 donors) (IL-2 2.5 ng/mL); assay: as above; conditions: 72 h
[10] = system: normal primary NK cells, pool 1 (3 donors), resting (IL-2 0 ng/mL); assay: as above; conditions: 72 h
[11] = system: DERL-7 (IL-2 2.5 ng/mL); assay: drug sensitivity score (DSS) (DSS units); higher = more sensitive; extreme values may be limits of the assay; conditions: 72 h
[12] = system: KAI3 (IL-2 2.5 ng/mL); assay: as above; conditions: 72 h
[13] = system: KHYG-1 (IL-2 2.5 ng/mL); assay: as above; conditions: 72 h
[14] = system: NK-92 (IL-2 2.5 ng/mL); assay: as above; conditions: 72 h
[15] = system: NK-YS (IL-2 2.5 ng/mL); assay: as above; conditions: 72 h
[16] = system: NKL (IL-2 2.5 ng/mL); assay: as above; conditions: 72 h
[17] = system: SNK-6 (IL-2 2.5 ng/mL); assay: as above; conditions: 72 h
[18] = system: YT (IL-2 2.5 ng/mL); assay: as above; conditions: 72 h
[19] = system: normal primary NK cells, pool 1 (3 donors) (IL-2 2.5 ng/mL); assay: as above; conditions: 72 h
[20] = system: normal primary NK cells, pool 1 (3 donors), resting (IL-2 0 ng/mL); assay: as above; conditions: 72 h
[21] = system: normal NK cells expanded with K562-aAPC; assay: percent inhibition of viability; higher = more inhibition; conditions: 72 h, IL-2 2.5 ng/mL
Procedure: (§1)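 Drug sensitivity and resistance testing on K562-aAPC-expanded normal NK cells: 5 concentrations (10-fold steps over a 10,000-fold range), 72 h at 37 °C, viability by CellTiter-Glo normalised to DMSO and benzethonium chloride controls; DSS from the fitted curve.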

[22] = system: IMC-1 (IL-2 20 ng/mL); assay: as above; conditions: 72 h
[23] = system: normal primary NK cells, pool 2 (3 donors) (IL-2 2.5 ng/mL); assay: as above; conditions: 72 h
[24] = system: normal primary NK cells, pool 3 (3 donors) (IL-2 2.5 ng/mL); assay: as above; conditions: 72 h
[25] = system: normal NK cells expanded with K562-aAPC; assay: drug sensitivity score (DSS) (DSS units); higher = more sensitive; extreme values may be limits of the assay; conditions: 72 h; IL-2 2.5 ng/mL
Procedure: as §1

[26] = system: IMC-1 (IL-2 20 ng/mL); assay: as above; conditions: 72 h
[27] = system: normal primary NK cells, pool 2 (3 donors) (IL-2 2.5 ng/mL); assay: as above; conditions: 72 h
[28] = system: normal primary NK cells, pool 3 (3 donors) (IL-2 2.5 ng/mL); assay: as above; conditions: 72 h

Cc1cnc(Nc2ccc(OCCN3CCCC3)cc2)nc1Nc1cccc(S(=O)(=O)NC(C)(C)C)c1 (max concentration tested 10000 nM)
percent inhibition of viability [%]
Conditions | [1] | [2] | [3] | [4] | [5] | [6] | [7] | [8] | [9] | [10]
1 nM | 2.35 | -2.12 | -4.97 | -22 | -4.69 | -6.46 | -5 | -4.96 | 2.15 | -0.59
10 nM | 0.3 | 8.65 | -1.52 | -8.95 | 1.18 | 3.43 | -10.1 | -1.05 | 0.15 | 16
100 nM | 26.8 | 26.5 | 7.04 | -15.3 | 10.9 | 50.6 | -13.7 | 6.19 | 24.1 | 14.1
1000 nM | 84.8 | 90.3 | 99.4 | 33 | 68.9 | 83.5 | 58.4 | 51.3 | 83 | 51.8
10000 nM | 101 | 108 | 108 | 106 | 108 | 109 | 101 | 107 | 99.8 | 96.5

Conditions | drug sensitivity score
[11] | 18.8
[12] | 19.8
[13] | 19
[14] | 10.2
[15] | 14.6
[16] | 22.6
[17] | 12.4
[18] | 11.8
[19] | 18.2
[20] | 12.3

Nc1nc2[nH]cc(CCc3ccc(C(=O)N[C@@H](CCC(=O)O)C(=O)O)cc3)c2c(=O)[nH]1 [Pemetrexed] (max concentration tested 10000 nM)
percent inhibition of viability [%]
Conditions | 1 nM | 10 nM | 100 nM | 1000 nM | 10000 nM
[21] | -3.65 | -7.62 | 29.1 | 32.5 | 32.7
[22] | -2.55 | -0.76 | 27.5 | 93 | 94.2
[23] | -0.42 | -8.75 | -3.95 | -3.15 | -2.1
[24] | -6.87 | -6.65 | -7.52 | -11.4 | -7.17

Conditions | drug sensitivity score
[25] | 8.95
[26] | 20.9
[27] | 0
[28] | 0

Cc1sc2c(c1C)C(c1ccc(Cl)cc1)=N[C@@H](CC(=O)OC(C)(C)C)c1nnc(C)n1-2 [(+)JQ1] (max concentration tested 10000 nM)
percent inhibition of viability [%]
Conditions | [1] | [2] | [3] | [4] | [5] | [6] | [7] | [8] | [9] | [10]
1 nM | 3.63 | -7.52 | -9.07 | -5.26 | -10.6 | -9.69 | -15.8 | 1.34 | 1.42 | -3.74
10 nM | 11.6 | -10.2 | -3.7 | -16.7 | -2.12 | -1.54 | -1.34 | -1.16 | 1.32 | -13
100 nM | 54.6 | 3.52 | 24.7 | -31.8 | 19.8 | 29.4 | 12.2 | 8.16 | 9.32 | -3.42
1000 nM | 96.1 | 47.9 | 89.8 | 22.2 | 62.4 | 69 | 71.4 | 56.7 | 56.9 | 34
10000 nM | 98.5 | 53.6 | 92.7 | 35.5 | 73.2 | 60.9 | 74.2 | 59.4 | 84.1 | 74.8

Conditions | drug sensitivity score
[11] | 24.3
[12] | 9.24
[13] | 19.9
[14] | 4.26
[15] | 13.9
[16] | 16.6
[17] | 15
[18] | 11.7
[19] | 12.1
[20] | 8.55
